Results published in PubChem BioAssay (NCI).
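A five-concentration, 48-hour dose response in 96-well plates underlies each endpoint, interpolated linearly between surrounding concentrations. At the TGI there is no net growth.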

Tests used:
Experiment in all cases: inhibition of tumour cell growth, NCI panel, 48 h
SK-MEL-28 melanoma = system: SK-MEL-28 melanoma
HOP-62 NSCLC = system: HOP-62 NSCLC
A498 renal = system: A498 renal
ACHN renal = system: ACHN renal
TK-10 renal = system: TK-10 renal
A549 NSCLC = system: A549 NSCLC
HS 578T breast = system: HS 578T breast
RPMI-8226 leukemia = system: RPMI-8226 leukemia
KM12 colon = system: KM12 colon
T-47D breast = system: T-47D breast

SMILES | TGI (SK-MEL-28 melanoma) [µM] | TGI (HOP-62 NSCLC) [µM] | TGI (A498 renal) [µM] | TGI (ACHN renal) [µM] | TGI (TK-10 renal) [µM] | TGI (A549 NSCLC) [µM] | TGI (HS 578T breast) [µM] | TGI (RPMI-8226 leukemia) [µM] | TGI (KM12 colon) [µM] | TGI (T-47D breast) [µM]
Cc1nc2ccc(Cl)cc2c(-n2ccnc2)c1CCn1ccnc1 | 92.8 | > 100 | 76.2 | 83.6 | > 100 | > 100 | 49.1 |  |  | 
COc1cc([C@@H]2c3cc4c(cc3[C@@H](NC(=O)c3ccc(C#N)cc3)C3COC(=O)[C@@H]32)OCO4)cc(OC)c1O (stereo partly specified) | 16.8 | 0.673 | 3.79 | 1.47 | 4.86 | 1.64 |  | 11.7 | 3.2 | 
NS(=O)(=O)c1nnc(NC(=O)N(c2ccccc2)c2ccccc2)s1 | > 100 | 77.3 |  |  | > 100 | > 100 | 73 | 49.4 | 56.8 | 
CN(C)c1nc(Oc2nc(N(C)C)nc(N(C)C)n2)nc(N(C)C)n1 | > 100 |  | > 100 | > 100 | > 100 | > 100 |  | > 100 | > 100 | 
COC(=O)CCC(NC(=S)N/N=C/c1cccs1)C(=O)OC (stereo unspecified) | > 100 | > 100 | > 100 | > 100 | > 100 | > 100 |  |  | > 100 | 
Cn1nc(-c2ccc(S(=O)(=O)/N=C(\NN)Nc3ccc(Cl)cc3)s2)cc1C(F)(F)F | 33.8 | 32.3 | 31 | 33.8 | 35.6 | 29.3 |  | 56 | 31.5 | 27.6
Cc1cc([N+](=O)[O-])c(C)c2c1[nH]c1ccc(Cl)cc12 | > 100 | > 100 |  | > 100 | > 100 | > 100 |  | > 100 | > 100 | 
O=c1cc(O)cc2n1CCC2 |  | > 100 | > 100 | > 100 | > 100 | > 100 |  | > 100 | > 100 | 
CC1CC(N2CCOCC2)=Nc2ccccc2N1C (stereo unspecified) | > 100 | > 100 | > 100 | > 100 | > 100 | > 100 | > 100 | > 100 | > 100 | 
C[n+]1cc2cc(O)c(O)cc2c2ccc3cc(O)c(O)cc3c21 | > 100 | 10.8 | 11.8 | > 100 | > 73.2 | > 100 |  | > 100 | > 100 | > 100
COC(=O)c1ccccc1C1CN=NC12Cc1c(ccc(C)c1C)C2=O (stereo unspecified) | > 100 | > 100 | > 100 | > 100 | > 100 | > 100 | > 100 |  | > 100 | > 100
CN(C)CCn1c(=O)c2ccc(NCCCN(C)CCCNc3ccc4c(=O)n(CCN(C)C)c(=O)n5c6ccc(O)cc6c(=O)c3c45)c3c(=O)c4cc(O)ccc4n(c1=O)c23 | 1.19 | 1.51 | 0.367 | 0.726 | 1.63 | 0.786 |  |  | 0.553 | 10.2
N#Cc1c(-c2ccc([N+](=O)[O-])cc2)cc(-c2ccc(Nc3ccnc4cc(Cl)ccc34)cc2)[nH]c1=O | > 100 | > 100 | > 100 | > 100 | > 100 | > 100 |  | > 100 | > 100 | > 100
N#CNC(N)=NCc1ccccc1 | > 100 | > 100 | > 100 | > 100 | > 100 | > 100 |  | > 100 | > 100 | 
O=C(c1ccco1)N(C(=O)N1CCCCC1)c1ccccc1 | > 100 |  | > 100 | > 100 | > 100 |  | > 100 | > 100 | > 100 | 
CCCCCCCC(=O)OCC(COC(=O)C(C)(C)C)OC(=O)Cc1ccccc1 (stereo unspecified) | > 100 | > 100 | > 100 | > 100 | > 100 | > 100 |  | > 100 |  | 
COc1cc2ccc3c4cc(OC)c(OC)cc4c[n+](C)c3c2cc1O | > 100 | > 100 | > 48.1 | > 76.6 | > 100 | > 100 |  | > 100 | > 100 | 
CCOC(=O)C1C(c2ccc(Cl)cc2Cl)NC(c2ccc(C)cc2)C(C(=O)OC)S1(=O)=O (stereo unspecified) | > 100 | > 100 | > 100 | > 100 | > 100 | > 100 |  | > 100 | > 100 | 
